In publication PMC6920997, “Total Phenolic and Flavonoid Content and Biological Activities of Extracts and Isolated Compounds of Cytisus villosus Pourr” (Biomolecules, 2019):
Values after ≈ are worked out from the molar mass of the structure shown. Like-named read-outs stand apart in the source and are kept apart here. Blank lines part the entries; values can stand above or below the compound they belong to.

Tests used:
Pseudomonas aeruginosa = assay: Antibacterial assay P. aeruginosa; format: cell-based; conditions: for inhibition at 50 µg/mL: Concentration: 50 μg/mL, <50 considered inactive, read-out: % Growth Inhibition P. aeruginosa; for IC50: pure compounds
Protocol: (§1) Extracts and pure compounds were tested for their antimicrobial activity against Staphylococcus aureus, methicillin-resistant S. aureus (MRSA), Escherichia coli, Pseudomonas aeruginosa, and Mycobacterium intracellulare. The antifungal activities were evaluated against a panel of pathogenic fungi, including Candida albicans, C. glabrata, C. krusei, Aspergillus fumigatus, and Cryptococcus neoformans, associated with opportunistic infections.

Escherichia coli = assay: Antibacterial assay E. coli; format: cell-based; conditions: for inhibition at 50 µg/mL: Concentration: 50 μg/mL, <50 considered inactive, read-out: % Growth Inhibition E. coli; for IC50: pure compounds
Protocol: as §1

THP1 cytotoxicity = format: cell-based; conditions: human
Text: (§2) The in vitro antileishmanial and antitrypanosomal assays were done on cell cultures of L. donovani promastigotes, axenic amastigotes, THP1-amastigotes, and Trypanosoma brucei trypomastigotes by Alamar Blue assays. The conditions for seeding the THP1 cells, exposure to the test samples, and evaluation of cytotoxicity were the same as described in parasite-rescue and transformation assay. IC50 and IC90 values were computed from the dose response curves using XLfit software (XLfit 5.3.1, IDBS analytical, Boston MA, USA). DFMO (difluoromethylornithine) was used as the positive control. The antiprotozoal activity of C. villosus extracts and isolated compounds were evaluated in vitro against L. donovani promastigotes, axenic amastigotes, and intracellular amastigotes in THP1 cells. The extracts and some isolated compounds were also evaluated against T. brucei trypomastigote forms. All the extracts and compounds were simultaneously tested against THP1 cell for determination of general cytotoxicity. The extracts and isolated compounds were also evaluated for their antimalarial activity against chloroquine-sensitive (D6, Sierra Leone) and chloroquine-resistant strains (W2, Indochina) strains of Plasmodium falciparum. Furthermore, they were tested for cytotoxicity against the Vero cell line.

THP1 cells = assay: THP1 cytotoxicity; format: cell-based
Text: as §2

[1] = test system: methicillin-resistant S. aureus (MRSA); assay: Antibacterial assay MRSA; format: cell-based; conditions: Staphylococcus aureus; for inhibition at 50 µg/mL: Concentration: 50 μg/mL, <50 considered inactive, read-out: % Growth Inhibition MRSA
Protocol: as §1

Cryptococcus neoformans = assay: Antifungal assay C. neoformans; format: cell-based; conditions: for inhibition at 50 µg/mL: Concentration: 50 μg/mL, <50 considered inactive, read-out: % Growth Inhibition C. neoformans; for IC50: pure compounds
Protocol: as §1

Candida albicans = assay: Antifungal assay C. albicans; format: cell-based; conditions: for inhibition at 50 µg/mL: Concentration: 50 μg/mL, <50 considered inactive, read-out: % Growth Inhibition C. albicans; for IC50: pure compounds
Protocol: as §1

[2] = test system: L. donovani axenic amastigotes; assay: Antileishmanial Alamar Blue assay, axenic amastigotes; format: cell-based; conditions: Leishmania donovani; for IC50: read-out: L. donovani Amastigote IC50; for IC90: read-out: L. donovani Amastigote IC90
Text: as §2

[3] = test system: L. donovani intracellular amastigotes in THP1 cells; assay: Antileishmanial assay, intracellular amastigotes in THP1 cells; format: cell-based; conditions: Leishmania donovani; for IC50: THP-1, read-out: L. donovani Amastigote/THP1 IC50; for IC90: THP-1, read-out: L. donovani Amastigote/THP1 IC90
Text: as §2

[4] = test system: L. donovani promastigotes; assay: Antileishmanial Alamar Blue assay, promastigotes; format: cell-based; conditions: Leishmania donovani; for IC50: read-out: L. donovani Promastigote IC50; for IC90: read-out: L. donovani Promastigote IC90
Text: as §2

Aspergillus fumigatus = assay: Antifungal assay A. fumigatus; format: cell-based
Protocol: as §1

iNOS = assay: Inhibition of iNOS (intracellular NO production) in RAW 264.7 macrophages; format: cell-based; conditions: Mus musculus, RAW264.7; RAW 264.7 cells; NA = no activity at 25 µg/mL (pure compounds) or 100 µg/mL (extracts)
Protocol: The extracts and isolated compounds of C. villosus were evaluated in terms of their interaction with cellular targets related to inflammation and metabolic disorders, such as iNOS and NF-κB. The inhibition of intracellular NO production as a result of iNOS activity was assayed in mouse macrophages (RAW 264.7cells). Cytotoxicity of test samples to macrophages was also determined in parallel to check if the inhibition of iNOS was due to cytotoxic effects.

NF-κB = assay: Reporter gene assay for the inhibition of NF-κB; format: cell-based; conditions: PMA-treated cells, luciferase reporter; NA = no activity at 25 µg/mL (pure compounds) or 100 µg/mL (extracts); read-out: Inhibition of NF-kB IC50
Protocol: Reporter gene assay for the inhibition of NF-κB Activity was performed as described earlier. In brief, cells transfected with NF-κB luciferase plasmid construct were plated in 96-well plates at a density of 1.25 × 10^5 cells/well. After 24 h, cells were treated with the test compounds and, after incubating for 30 min, phorbol 12-myristate 13-acetate (PMA) (Sigma-Aldrich, Burlington MA, USA) (70 ng/mL) was added and further incubated for 6−8 h. Luciferase activity was measured as described above. Percent decrease in luciferase activity was calculated relative to the vehicle control. Parthenolide (Sigma-Aldrich, Burlington MA, USA) was used as a positive control.

[5] = DPPH radical scavenging assay; conditions: mean ± SD of three measurements
Protocol: The antioxidant activity of the extracts and pure isolated compounds was determined by applying the 2,2-diphenyl-1-picrylhydrazyl (DPPH) radical scavenging method.

HepG2 cells = assay: Cellular antioxidant activity (CAA) assay; format: cell-based
Protocol: The cellular antioxidant activity was measured in HepG2 cells as described by Wolfe and Rui. The antioxidant activity was expressed in terms of CAA units. The area under the curve (AUC) of fluorescence versus time plot was used to calculate CAA units as described by Wolfe and Rui.

[6] = test system: Trypanosoma brucei trypomastigotes; assay: Antitrypanosomal Alamar Blue assay; format: cell-based; conditions: for IC50 / IC90: Table 4; for IC50: read-out: T. brucei IC50; for IC90: read-out: T. brucei IC90
Text: as §2

Staphylococcus aureus = assay: Antibacterial assay S. aureus; format: cell-based; conditions: pure compounds
Protocol: as §1

[7] = Cytotoxicity against Vero cell line (antimalarial counterscreen); format: cell-based; conditions: African green monkey, column head does not name the cells, read-out: IC50 (third IC50 column of Table 7, presumably Vero cytotoxicity)
Text: as §2

P. falciparum (W2 Clone) = assay: Antimalarial assay, chloroquine-resistant W2 clone; format: cell-based, Plasmodium falciparum; conditions: for SI (second SI column of Table 7, presumably W2): selectivity index = IC50 for cytotoxicity/IC50 for antimalarial activity
Text: as §2

P. falciparum (D6 Clone) = assay: Antimalarial assay, chloroquine-sensitive D6 clone; format: cell-based, Plasmodium falciparum; conditions: for SI (first SI column of Table 7, presumably D6): selectivity index = IC50 for cytotoxicity/IC50 for antimalarial activity
Text: as §2

[8] = THP1 cells, read-out: THP1 Cytotoxicity IC50

Structure (SMILES): O=c1c(O)c(-c2ccc(O)c(O)c2)oc2cc(O)cc(O)c12 [Quercetin, reference compound]
% Decrease in Oxidative Stress (HepG2 cells; 25 µM): 77%

Structure (SMILES): O=c1c(-c2ccc(O)cc2)coc2cc(O)cc(O)c12 [Compound 1, genistein]
IC50 (iNOS): 9 µg/mL (≈ 33.3 µM)
IC50 (NF-κB): 28 µg/mL (≈ 104 µM)

Structure (SMILES): O=C(O)c1cn(C2CC2)c2cc(N3CCNCC3)c(F)cc2c1=O [CIPRO, Ciprofloxacin, reference compound]
inhibition at 50 µg/mL (Pseudomonas aeruginosa): 96%
inhibition at 50 µg/mL (Escherichia coli): 100%
inhibition at 50 µg/mL [1]: 0%
inhibition at 50 µg/mL (Cryptococcus neoformans): 0%
inhibition at 50 µg/mL (Candida albicans): 0%

Structure (SMILES): NCCCC(N)(C(=O)O)C(F)F (centres unmarked) [DFMO, difluoromethylornithine, reference compound]
IC50 [6]: 3.63 µM
IC90 [6]: 8.8 µM

Structure (SMILES): O=c1cc(-c2ccccc2)oc2cc(O[C@@H]3O[C@H](CO)[C@@H](O)[C@H](O)[C@H]3O)cc(O)c12 [Compound 3, chrysin-7-O-β-D-glucopyranoside]
IC50 ([7]; Vero cells): > 4.76 µg/mL
IC50 (Pseudomonas aeruginosa): > 20 µg/mL
IC50 (Escherichia coli): > 20 µg/mL
IC50 (THP1 cytotoxicity; [8]): > 10 µM
THP1 Cytotoxicity C90 (THP1 cells): >10 µM
IC50 (iNOS): 20 µg/mL (≈ 48 µM)
IC50 (Cryptococcus neoformans): > 20 µg/mL
IC50 (Candida albicans): > 20 µg/mL
IC50 ([6]; Trypanosoma brucei): > 10 µM
IC90 ([6]; Trypanosoma brucei): > 10 µM
SI (second SI column of Table 7, presumably W2) (P. falciparum (W2 Clone)): 1
IC50 (Staphylococcus aureus): > 20 µg/mL
IC50 [2]: > 10 µM
IC90 [2]: > 10 µM
SI (first SI column of Table 7, presumably D6) (P. falciparum (D6 Clone)): 1
IC50 [3]: > 10 µM
IC90 [3]: > 10 µM
IC50 [4]: > 10 µM
IC90 [4]: > 10 µM

Structure (SMILES): N=C(N)c1ccc(OCCCCCOc2ccc(C(=N)N)cc2)cc1 [Pentamidine, reference compound]
IC50 (THP1 cytotoxicity): > 10 µM
THP1 Cytotoxicity C90 (THP1 cells; human): >10 µM
IC50 ([6]; Trypanosoma brucei): 0.001 µM
IC90 ([6]; Trypanosoma brucei): 0.002 µM
IC50 [2]: 9.58 µM
IC90 [2]: > 10 µM
IC50 [3]: 1.16 µM
IC90 [3]: 5.59 µM
IC50 [4]: 1.48 µM
IC90 [4]: 2.38 µM

Structure (SMILES): CCN(CC)CCCC(C)Nc1ccnc2cc(Cl)ccc12 (centres unmarked) [CQ, Chloroquine, reference compound]
IC50 [7]: > 0.238 µg/mL
IC50 (P. falciparum (W2 Clone); Plasmodium falciparum, W2, read-out: IC50 (second IC50 column of Table 7, presumably P. falciparum W2)): 0.116 µg/mL (≈ 0.363 µM)
SI (second SI column of Table 7, presumably W2) (P. falciparum (W2 Clone)): >2.1
inhibition at 0.0793 µg/mL (P. falciparum (D6 Clone); Plasmodium falciparum, D6, read-out: %Inhibition P. falciparum (D6 Clone)): 100%
IC50 (P. falciparum (D6 Clone); Plasmodium falciparum, read-out: IC50): < 0.026 µg/mL
SI (first SI column of Table 7, presumably D6) (P. falciparum (D6 Clone)): >9

Continued, in another order:

IC50 [2]: 0.211 µM
IC90 [2]: 0.374 µM
IC50 [3]: 0.188 µM
IC90 [3]: 0.421 µM
IC50 [4]: 0.136 µM
IC90 [4]: 0.215 µM
Structure (SMILES): C[C@@H]1[C@H](O)[C@@H](C)/C=C/C=C/C=C/C=C/C=C/C=C/C=C/[C@H](O[C@@H]2O[C@H](C)[C@@H](O)[C@H](N)[C@@H]2O)C[C@@H]2O[C@](O)(C[C@@H](O)C[C@@H](O)[C@H](O)CC[C@@H](O)C[C@@H](O)CC(=O)O[C@H]1C)C[C@H](O)[C@H]2C(=O)O [Amphotericin B, reference compound]
inhibition at 50 µg/mL (Pseudomonas aeruginosa): 0%
inhibition at 50 µg/mL (Escherichia coli): 0%
IC50 (THP1 cytotoxicity): > 2 µM
THP1 Cytotoxicity C90 (THP1 cells; human): >2 µM
inhibition at 50 µg/mL [1]: 1%
inhibition at 50 µg/mL (Cryptococcus neoformans): 100%
inhibition at 50 µg/mL (Candida albicans): 100%
inhibition at 50 µg/mL (Aspergillus fumigatus; Concentration: 50 μg/mL, <50 considered inactive, read-out: % Growth Inhibition A. fumigatus): 93%

IC50 (iNOS): 0.2 µg/mL (≈ 0.805 µM)
IC50 (NF-κB): 1.63 µg/mL (≈ 6.56 µM)
Structure (SMILES): C=C1C(=O)O[C@H]2[C@H]1CC/C(C)=C/CC[C@@]1(C)O[C@@H]21 [Parthenolide, reference compound]

DPPH Scavenging IC50 [5]: 43 ± 6 µg/mL
Structure (SMILES): O=C1O[C@H]([C@@H](O)CO)C(O)=C1O [Ascorbic acid]

IC50 (Pseudomonas aeruginosa): > 20 µg/mL
IC50 (Escherichia coli): > 20 µg/mL
IC50 ([1]; pure compounds): > 20 µg/mL
IC50 (Cryptococcus neoformans): > 20 µg/mL
IC50 (Candida albicans): > 20 µg/mL
IC50 ([6]; Trypanosoma brucei): > 10 µM
IC90 ([6]; Trypanosoma brucei): > 10 µM
T. brucei IC50 ([6]; as given in the text): didn’t show an effect
IC50 (Staphylococcus aureus): > 20 µg/mL
IC50 [2]: > 10 µM
IC90 [2]: > 10 µM
IC50 [3]: > 10 µM
IC90 [3]: > 10 µM
IC50 [4]: > 10 µM
IC90 [4]: > 10 µM
IC50 (Aspergillus fumigatus; pure compounds): > 20 µg/mL
Structure (SMILES): C[C@@H]1O[C@@H](O[C@@H]2[C@@H](O)[C@H](O)[C@@H](CO)O[C@H]2c2c(O)cc(O)c3c(=O)cc(-c4ccc(O)c(O)c4)oc23)[C@H](O)[C@H](O)[C@H]1O [Compound 4, 2″-O-α-L-rhamnosylorientin]
% Decrease in Oxidative Stress (HepG2 cells; concentration 250 µg/mL): 28%
% Decrease in Oxidative Stress (HepG2 cells; concentration 500 µg/mL): 29%
% Decrease in Oxidative Stress (HepG2 cells; concentration 1000 µg/mL): 36%
IC50 (THP1 cytotoxicity; [8]): > 10 µM
THP1 Cytotoxicity C90 (THP1 cells): >10 µM
